What was measured:
[1] = test system: human peripheral blood mononuclear cells (T cell proliferation); test: In vitro T cell proliferation assay, Test (b)(ii): non T cell receptor stimulation (PMA and Ionomycin); assay type: cell-based; conditions: human PBMC, stimulation with PMA and Ionomycin, tritiated thymidine
Procedure: (§1) (b) In vitro T Cell Proliferation Assays
(§2) The ability of test compounds to inhibit T cell proliferation was assessed by using human peripheral blood mononuclear cells and stimulation of the T cells by way of the T cell receptor or other than by way of the T cell receptor.
(§3) Peripheral blood mononuclear cells (PBMC) were isolated from heparinised (10 units/ml heparin) human blood by density centrifugation (Lymphoprep™; Nycomed) spinning initially at 2000 rpm at ambient temperature for 20 minutes. Cells at the interphase were transferred to clean tubes, diluted 1:1 with RPMI 1640 medium (Gibco) and spun at 2000 rpm at ambient temperature for 10 minutes. The cell pellet was resuspended in RPMI 1640 medium and spun at 1400 rpm at ambient temperature for 10 minutes. The cell pellet was resuspended in RPMI 1640 medium and spun at 900 rpm at ambient temperature for 10 minutes to remove platelets. […]
(§4) The extent of inhibition of T cell proliferation at a range of concentrations of each test compound was determined and an IC50 value was calculated. […]
Aliquots (50 μl) of a mixture of the cell stimulants PMA (phorbol-12-myristate-13-acetate, Sigma Catalogue No. P8139; 40 ng/ml) and Ionomycin (Sigma Catalogue No. I0684; 1.2 μM) were added to each well and the cells were incubated and analysed as described in paragraph (b)(i).

p56^lck enzyme = molecular target: T1, p56^lck enzyme (Homo sapiens, UniProt P06239); test: In vitro enzyme assay, Test (a): inhibition of p56lck phosphorylation of a tyrosine-containing polypeptide substrate (Elisa); assay type: biochemical; conditions: inhibition of phosphorylation by p56lck
T1 construct: fused on or other part: N-terminal 6-His tag
T1 sequence (P06239 whole entry, the tested form may be a part): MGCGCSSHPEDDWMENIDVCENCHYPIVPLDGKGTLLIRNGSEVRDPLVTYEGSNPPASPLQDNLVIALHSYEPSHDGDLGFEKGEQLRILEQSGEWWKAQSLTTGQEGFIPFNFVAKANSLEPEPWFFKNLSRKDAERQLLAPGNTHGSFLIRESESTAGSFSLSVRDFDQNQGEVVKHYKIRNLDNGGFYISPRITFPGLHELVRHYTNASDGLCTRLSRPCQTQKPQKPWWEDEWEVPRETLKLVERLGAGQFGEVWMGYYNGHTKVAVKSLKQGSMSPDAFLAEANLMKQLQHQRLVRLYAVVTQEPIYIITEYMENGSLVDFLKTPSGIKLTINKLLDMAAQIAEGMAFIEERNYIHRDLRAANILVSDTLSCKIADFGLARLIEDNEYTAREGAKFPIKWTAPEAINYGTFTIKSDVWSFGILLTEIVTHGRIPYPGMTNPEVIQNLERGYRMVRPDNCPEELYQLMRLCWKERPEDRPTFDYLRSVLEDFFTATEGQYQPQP
Procedure: (a) In vitro Enzyme Assay
The ability of test compounds to inhibit phosphorylation by the enzyme p56^lck of a tyrosine-containing polypeptide substrate was assessed using a conventional Elisa assay.
The following conventional procedure was used to obtain p56^lck enzyme. An EcoR1/Not1 fragment containing the entire coding sequence of p56^lck was generated by the technique of polymerase chain reaction (PCR) from Incyte clone No. 2829606. A 6-His tag was added to the sequence at the N-terminus during the PCR stage. Conventional sequence analysis identified a number of changes compared to the published sequence and these were found also to have been present in the original Incyte template. To achieve expression of the enzyme, the PCR fragment was inserted downstream of the polyhedrin promotor of pFASTBAC1 (Life Technologies Limited, Paisley, UK, Catalogue No. 10360-014). A recombinant Baculovirus was constructed using the Bac-to-Bac system (Life Technologies Limited). High Five insect cells (Invitrogen BV, PO Box 2312, 9704 CH Groningen, The Netherlands, Catalogue No. B855-02) were infected with the recombinant Baculovirus at a multiplicity of infection of 1 and incubated for 48 hours. The cells were harvested. […]

[2] = test system: human peripheral blood mononuclear cells (T cell proliferation); test: In vitro T cell proliferation assay, Test (b)(i): T cell receptor stimulation (anti-CD3 antibody); assay type: cell-based; conditions: human PBMC, T cell receptor stimulation with anti-CD3 antibody, tritiated thymidine
Procedure: as §1, §2
as §3, with “minutes.” for “minutes. The cell pellet was resuspended in RPMI 1640 medium and spun at 900 rpm at ambient temperature for 10 minutes to remove platelets.”
as §4
Aliquots (50 μl) of the T cell receptor stimulatory anti-CD3 antibody (Pharmingen Catalogue No. 30100D; 40 ng/ml in assay medium) were added to each well and the cells were incubated for 24 hours at 37° C. in a humidified (5%CO2/95% air) incubator. […] The cells were harvested onto a filter mat and radioactivity was counted using a Wallac 1450 Microbeta Plus liquid scintillation counter.

IC50 (p56^lck enzyme): ~30 nM
Compound: COc1cc2nccc(Oc3ccc(Cl)cc3F)c2cc1C(=O)NCCCN1CCOCC1 [Example 1, 4-(4-chloro-2-fluorophenoxy)-7-methoxy-N-(3-morpholinopropyl)quinoline-6-carboxamide]
IC50 [1]: ~18000 nM
IC50 [2]: ~700 nM
